Experimental data reported in US9738634B2, “Heterocyclic amide compound and herbicide” (SYNGENTA PARTICIPATIONS AG, priority 2013, dated 2017).

Experiments:
Type in all cases: in vivo
beet [1] = assay: Test Example 3: soil treatment, effect on crop; f: beet; details: treatment dosage 315 g/ha
In short: (§1)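 Crop and weed responses were judged three weeks after a uniform surface spray of the water-diluted emulsion at the given g/ha rate. Seeds sat beneath about 1.5 cm of sterilized diluvial soil, and boxes stood in a greenhouse at 25 to 30° C.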

redroot pigweed [2] = assay: Test Example 4: weedkilling efficacy by foliar treatment; L: redroot pigweed; details: treatment dosage 315 g/ha
In short: (§2)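 Seeds are spot-sown into sterilized diluvial soil and covered with about 1.5 cm of soil. After 14 days' greenhouse growth at 25 to 30° C, plants are sprayed on stems and leaves with diluted emulsion at the stated g/ha rate, then scored at 3 weeks.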

barnyard grass [3] = assay: Test Example 3: weedkilling efficacy through soil treatment; F: barnyard grass; details: treatment dosage 315 g/ha
In short: as §1

birds-eye speedwell [4] = assay: Test Example 3: weedkilling efficacy through soil treatment; p: birds-eye speedwell; details: treatment dosage 315 g/ha
In short: as §1

crabgrass [5] = assay: Test Example 4: weedkilling efficacy by foliar treatment; D: crabgrass; details: treatment dosage 315 g/ha
In short: as §2

Italian ryegrass [6] = assay: Test Example 3: weedkilling efficacy through soil treatment; I: Italian ryegrass; details: treatment dosage 315 g/ha
In short: as §1

oval-leafed pondweed [7] = assay: Test Example 1: weedkilling efficacy, preemergent weed treatment in the submerged state; C: oval-leafed pondweed; details: treatment dosage 252 g/ha
In short: (§3)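 Submerged pre-emergence treatment, water-surface application of compound emulsion at g/ha dosages; 4 cm flooded alluvial soil, weeds sown and 2.5-leaf rice transplanted same day. Rated after 3 weeks, greenhouse.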

corn [8] = assay: Test Example 4: foliar treatment, effect on crop; c: corn; details: treatment dosage 315 g/ha
In short: as §2

catchweed [9] = assay: Test Example 3: weedkilling efficacy through soil treatment; O: catchweed; details: treatment dosage 315 g/ha
In short: as §1

bulrush [10] = assay: Test Example 1: weedkilling efficacy, preemergent weed treatment in the submerged state; B: bulrush; details: treatment dosage 252 g/ha
In short: as §3

beet [11] = assay: Test Example 4: foliar treatment, effect on crop; f: beet; details: treatment dosage 315 g/ha
In short: as §2

oval-leafed pondweed [12] = assay: Test Example 2: weedkilling efficacy, growth period weed treatment in the submerged state; C: oval-leafed pondweed; details: treatment dosage 252 g/ha
In short: (§4)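 Seedlings at 1-2 leaves in 4 cm-deep submerged alluvial soil received emulsion formulations on the water surface, dosed per hectare; effects were judged 3 weeks on.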

Indian mallow [13] = assay: Test Example 4: weedkilling efficacy by foliar treatment; K: Indian mallow; details: treatment dosage 315 g/ha
In short: as §2

birds-eye speedwell [14] = assay: Test Example 4: weedkilling efficacy by foliar treatment; p: birds-eye speedwell; details: treatment dosage 315 g/ha
In short: as §2

rapeseed [15] = assay: Test Example 4: foliar treatment, effect on crop; g: rapeseed; details: treatment dosage 315 g/ha
In short: as §2

corn [16] = assay: Test Example 3: soil treatment, effect on crop; c: corn; details: treatment dosage 315 g/ha
In short: as §1

common wind-grass [17] = assay: Test Example 3: weedkilling efficacy through soil treatment; J: common wind-grass; details: treatment dosage 315 g/ha
In short: as §1

wild oat [18] = assay: Test Example 4: weedkilling efficacy by foliar treatment; G: wild oat; details: treatment dosage 315 g/ha
In short: as §2

wheat [19] = assay: Test Example 3: soil treatment, effect on crop; e: wheat; details: treatment dosage 315 g/ha
In short: as §1

bulrush [20] = assay: Test Example 2: weedkilling efficacy, growth period weed treatment in the submerged state; B: bulrush; details: treatment dosage 252 g/ha
In short: as §4

wheat [21] = assay: Test Example 4: foliar treatment, effect on crop; e: wheat; details: treatment dosage 315 g/ha
In short: as §2

green foxtail [22] = assay: Test Example 4: weedkilling efficacy by foliar treatment; E: green foxtail; details: treatment dosage 315 g/ha
In short: as §2

catchweed [23] = assay: Test Example 4: weedkilling efficacy by foliar treatment; O: catchweed; details: treatment dosage 315 g/ha
In short: as §2

soybean [24] = assay: Test Example 3: soil treatment, effect on crop; d: soybean; details: treatment dosage 315 g/ha
In short: as §1

black-grass [25] = assay: Test Example 4: weedkilling efficacy by foliar treatment; H: black-grass; details: treatment dosage 315 g/ha
In short: as §2

chickweed [26] = assay: Test Example 4: weedkilling efficacy by foliar treatment; N: chickweed; details: treatment dosage 315 g/ha
In short: as §2

wild oat [27] = assay: Test Example 3: weedkilling efficacy through soil treatment; G: wild oat; details: treatment dosage 315 g/ha
In short: as §1

redroot pigweed [28] = assay: Test Example 3: weedkilling efficacy through soil treatment; L: redroot pigweed; details: treatment dosage 315 g/ha
In short: as §1

soybean [29] = assay: Test Example 4: foliar treatment, effect on crop; d: soybean; details: treatment dosage 315 g/ha
In short: as §2

common wind-grass [30] = assay: Test Example 4: weedkilling efficacy by foliar treatment; J: common wind-grass; details: treatment dosage 315 g/ha
In short: as §2

barnyard grass [31] = assay: Test Example 2: weedkilling efficacy, growth period weed treatment in the submerged state; A: barnyard grass; details: treatment dosage 252 g/ha
In short: as §4

crabgrass [32] = assay: Test Example 3: weedkilling efficacy through soil treatment; D: crabgrass; details: treatment dosage 315 g/ha
In short: as §1

chickweed [33] = assay: Test Example 3: weedkilling efficacy through soil treatment; N: chickweed; details: treatment dosage 315 g/ha
In short: as §1

Indian mallow [34] = assay: Test Example 3: weedkilling efficacy through soil treatment; K: Indian mallow; details: treatment dosage 315 g/ha
In short: as §1

barnyard grass [35] = assay: Test Example 1: weedkilling efficacy, preemergent weed treatment in the submerged state; A: barnyard grass; details: treatment dosage 252 g/ha
In short: as §3

rapeseed [36] = assay: Test Example 3: soil treatment, effect on crop; g: rapeseed; details: treatment dosage 315 g/ha
In short: as §1

black-grass [37] = assay: Test Example 3: weedkilling efficacy through soil treatment; H: black-grass; details: treatment dosage 315 g/ha
In short: as §1

directly sown rice [38] = assay: Test Example 3: soil treatment, effect on crop; b: directly sown rice; details: treatment dosage 315 g/ha
In short: as §1

barnyard grass [39] = assay: Test Example 4: weedkilling efficacy by foliar treatment; F: barnyard grass; details: treatment dosage 315 g/ha
In short: as §2

directly sown rice [40] = assay: Test Example 4: foliar treatment, effect on crop; b: directly sown rice; details: treatment dosage 315 g/ha
In short: as §2

transplanted rice = assay: Test Example 1: preemergent weed treatment in the submerged state, effect on crop; a: transplanted rice; details: treatment dosage 252 g/ha
In short: as §3

Italian ryegrass [41] = assay: Test Example 4: weedkilling efficacy by foliar treatment; I: Italian ryegrass; details: treatment dosage 315 g/ha
In short: as §2

green foxtail [42] = assay: Test Example 3: weedkilling efficacy through soil treatment; E: green foxtail; details: treatment dosage 315 g/ha
In short: as §1

CC1=C(c2ccccc2)C(=O)N(C(C)(C)C(=O)Nc2cc(F)cc(F)n2)CO1 [B-2-33]
f (beet) effect on crop grade (beet [1]): 1 (weed kill ratio 5% or more, less than 20%) | L (redroot pigweed) weedkilling efficacy grade (redroot pigweed [2]): 4 (weed kill ratio 70% or more, less than 90%) | F (barnyard grass) weedkilling efficacy grade (barnyard grass [3]): 5 (weed kill ratio 90% or more, (practically complete withering)) | P (birds-eye speedwell) weedkilling efficacy grade (birds-eye speedwell [4]): 5 (weed kill ratio 90% or more, (practically complete withering)) | D (crabgrass) weedkilling efficacy grade (crabgrass [5]): 5 (weed kill ratio 90% or more, (practically complete withering)) | I (Italian ryegrass) weedkilling efficacy grade (Italian ryegrass [6]): 5 (weed kill ratio 90% or more, (practically complete withering)) | C (oval-leafed pondweed) weedkilling efficacy grade (oval-leafed pondweed [7]): 5 (weed kill ratio 90% or more, (practically complete withering)) | c (corn) effect on crop grade (corn [8]): 3 (weed kill ratio 40% or more, less than 70%) | O (catchweed) weedkilling efficacy grade (catchweed [9]): 5 (weed kill ratio 90% or more, (practically complete withering)) | B (bulrush) weedkilling efficacy grade (bulrush [10]): 5 (weed kill ratio 90% or more, (practically complete withering)) | f (beet) effect on crop grade (beet [11]): 4 (weed kill ratio 70% or more, less than 90%) | C (oval-leafed pondweed) weedkilling efficacy grade (oval-leafed pondweed [12]): 5 (weed kill ratio 90% or more, (practically complete withering)) | K (Indian mallow) weedkilling efficacy grade (Indian mallow [13]): 4 (weed kill ratio 70% or more, less than 90%) | P (birds-eye speedwell) weedkilling efficacy grade (birds-eye speedwell [14]): 5 (weed kill ratio 90% or more, (practically complete withering)) | g (rapeseed) effect on crop grade (rapeseed [15]): 4 (weed kill ratio 70% or more, less than 90%) | c (corn) effect on crop grade (corn [16]): 3 (weed kill ratio 40% or more, less than 70%) | J (common wind-grass) weedkilling efficacy grade (common wind-grass [17]): 5 (weed kill ratio 90% or more, (practically complete withering)) | G (wild oat) weedkilling efficacy grade (wild oat [18]): 5 (weed kill ratio 90% or more, (practically complete withering)) | e (wheat) effect on crop grade (wheat [19]): 5 (weed kill ratio 90% or more, (practically complete withering)) | B (bulrush) weedkilling efficacy grade (bulrush [20]): 5 (weed kill ratio 90% or more, (practically complete withering)) | e (wheat) effect on crop grade (wheat [21]): 4 (weed kill ratio 70% or more, less than 90%) | E (green foxtail) weedkilling efficacy grade (green foxtail [22]): 5 (weed kill ratio 90% or more, (practically complete withering)) | O (catchweed) weedkilling efficacy grade (catchweed [23]): 5 (weed kill ratio 90% or more, (practically complete withering)) | d (soybean) effect on crop grade (soybean [24]): 4 (weed kill ratio 70% or more, less than 90%) | H (black-grass) weedkilling efficacy grade (black-grass [25]): 5 (weed kill ratio 90% or more, (practically complete withering)) | N (chickweed) weedkilling efficacy grade (chickweed [26]): 4 (weed kill ratio 70% or more, less than 90%) | G (wild oat) weedkilling efficacy grade (wild oat [27]): 5 (weed kill ratio 90% or more, (practically complete withering)) | L (redroot pigweed) weedkilling efficacy grade (redroot pigweed [28]): 4 (weed kill ratio 70% or more, less than 90%) | d (soybean) effect on crop grade (soybean [29]): 4 (weed kill ratio 70% or more, less than 90%) | J (common wind-grass) weedkilling efficacy grade (common wind-grass [30]): 5 (weed kill ratio 90% or more, (practically complete withering)) | A (barnyard grass) weedkilling efficacy grade (barnyard grass [31]): 5 (weed kill ratio 90% or more, (practically complete withering)) | D (crabgrass) weedkilling efficacy grade (crabgrass [32]): 5 (weed kill ratio 90% or more, (practically complete withering)) | N (chickweed) weedkilling efficacy grade (chickweed [33]): 4 (weed kill ratio 70% or more, less than 90%) | K (Indian mallow) weedkilling efficacy grade (Indian mallow [34]): 5 (weed kill ratio 90% or more, (practically complete withering)) | A (barnyard grass) weedkilling efficacy grade (barnyard grass [35]): 5 (weed kill ratio 90% or more, (practically complete withering)) | g (rapeseed) effect on crop grade (rapeseed [36]): 5 (weed kill ratio 90% or more, (practically complete withering)) | H (black-grass) weedkilling efficacy grade (black-grass [37]): 5 (weed kill ratio 90% or more, (practically complete withering)) | b (directly sown rice) effect on crop grade (directly sown rice [38]): 5 (weed kill ratio 90% or more, (practically complete withering)) | F (barnyard grass) weedkilling efficacy grade (barnyard grass [39]): 5 (weed kill ratio 90% or more, (practically complete withering)) | b (directly sown rice) effect on crop grade (directly sown rice [40]): 5 (weed kill ratio 90% or more, (practically complete withering)) | a (transplanted rice) effect on crop grade (transplanted rice): 3 (weed kill ratio 40% or more, less than 70%) | I (Italian ryegrass) weedkilling efficacy grade (Italian ryegrass [41]): 5 (weed kill ratio 90% or more, (practically complete withering)) | E (green foxtail) weedkilling efficacy grade (green foxtail [42]): 5 (weed kill ratio 90% or more, (practically complete withering))
